These results are taken from EP1207391A1, “METHOD FOR SCREENING TARGETING DDS PREPARATION” (Ajinomoto Co., Inc., priority 1999, dated 2001).

Assay [1] has as its target T1, asialoglycoprotein receptor (Mus musculus, UniProt P24721+P34927).
T1 construct: Mouse primary cultured hepatocytes, which were cultured for overnight on the 12 well plate, isolated by collagenase perfusion; endogenous in cells; host or cells: mouse (C57BL/6) primary hepatocytes cultured overnight on 12-well plates
T1 sequence (P34927 1-284): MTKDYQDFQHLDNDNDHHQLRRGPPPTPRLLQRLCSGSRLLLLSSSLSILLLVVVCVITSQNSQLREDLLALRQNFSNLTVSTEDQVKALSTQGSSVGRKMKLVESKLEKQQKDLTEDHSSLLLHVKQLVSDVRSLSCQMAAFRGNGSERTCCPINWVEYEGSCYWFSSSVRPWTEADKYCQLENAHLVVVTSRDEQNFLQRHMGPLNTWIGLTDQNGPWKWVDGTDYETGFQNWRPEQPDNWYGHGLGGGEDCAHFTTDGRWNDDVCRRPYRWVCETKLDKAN
T1 sequence (P24721 1-301): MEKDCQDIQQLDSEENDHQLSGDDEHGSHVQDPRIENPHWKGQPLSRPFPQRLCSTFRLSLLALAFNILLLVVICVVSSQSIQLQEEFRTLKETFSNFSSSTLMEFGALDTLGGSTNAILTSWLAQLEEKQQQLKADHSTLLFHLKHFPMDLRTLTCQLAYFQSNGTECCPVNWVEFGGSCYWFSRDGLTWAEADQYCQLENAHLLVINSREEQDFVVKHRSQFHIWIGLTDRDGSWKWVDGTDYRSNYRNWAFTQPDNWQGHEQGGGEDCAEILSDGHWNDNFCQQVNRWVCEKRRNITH
Put plainly: Screening of ligand (1): bound 125I-ASOR after incubation of hepatocytes with unlabeled ligand (Example 17). The class given is cell-based. The settings on record: bound counts of 125I-ASOR after 10 minutes at 37°C with ligand at 100 - 2000 times of Kd; mean of 3. On the procedure: A method for screening ligand having high ability to avoid the internalization without radio labeling each ligand and without calculation of kint and koff, was performed as follows.
Concretely, mouse primary cultured hepatocytes, which were isolated by a method of Berry et al. collagenase perfusion method shown in example and cultured overnight on 12 well plate, was washed twice with D-MEM (pH 7.4) (each 2 ml) containing D-PBS, 0.1% BSA and 20 mM Hepes. The same D-MEM medium (1 ml) was added thereto and preincubated at 37°C for 60 minutes. Cooled D-PBS (pH 5.0) containing 10 mM EDTA was added to the cells, allowed to stand under ice cooling for 4 minutes and washed twice with cooled D-PBS (2 ml). […] After 10 minutes, the plate was placed on the ice bath, added the cooled D-PBS (pH 5.0) containing 10 mM EDTA, allowed to stand under ice cooling for 4 minutes, and washed 4 times with cooled D-PBS (1 ml). D-MEM solution (0.4 ml) of 0.6 nM ^125I-ASOR was added to the cells in each well on the ice bath, and allowed to stand at 4°C for 60 minutes. On the ice bath, they were washed 4 times with cooled D-PBS (1 ml), allowed to stand at -80°C for more than 30 minutes, added 0.1 N sodium hydroxide (0.5 ml), and incubated at 37°C formore than 1 hour. Amount of receptor remained on the surface (ligand bound or free) other than the internalization by endocytosis was calculated by measuring the cell lysis with ã-counter (mean of 3 repeats).

Assay [2] deals with T1, asialoglycoprotein receptor. The assay can be described thus: Screening of ligand (2): kint and koff without labeling the ligand (Example 18). The settings on record: for kint: 37°C for 10 minutes, 125I-ASOR read-out. The class given is cell-based. On the procedure:
A method for screening ligand having high ability to avoid the internalization without radio labeling each ligand to obtain kint and koff and to calculate simply the ability to avoid the internalization (= kint / koff) was performed as follows. […] Concretely, mouse primary cultured hepatocytes, which were isolated by the method of Berry et al. collagenase perfusion method shown in example and cultured overnight on 12 well plate, was washed twice with D-MEM (pH 7.4) (each 2 ml) containing D-PBS, 0.1% BSA and 20 mM Hepes. The same D-MEM medium (1 ml) was added thereto and preincubated at 37°C for 60 minutes. Cooled D-PBS (pH 5.0) containing 10 mM EDTA was added to the cells, allowed to stand under ice cooling for 4 minutes and washed twice with cooled D-PBS (2 ml). Using the thus prepared plate, experiments for calculating kint and koff were performed. […] Separately, the system without addition of the ligand was incubated for 0 minute and for 10 minutes at 37°C. After the necessary time has passed, immediately the plate was placed on the ice bath, added the cooled D-PBS (pH 5.0) containing 10 mM EDTA, allowed to stand under ice cooling for 4 minutes, and washed 4 times with cooled D-PBS (1 ml). D-MEM solution (0.4 ml) of 0.6 nM ^125I-ASOR was added to the cells in each well on the ice bath, and allowed to stand at 4°C for 60 minutes. […] Amount of receptor remained on the surface (ligand bound or free) other than the integration by endocytosis was calculated by measuring the cell lysis with ã-counter (mean of 3 repeats). The obtained amount of ratio activity was all divided by the concentration of the added solution (cpm/μl) to convert the distribution volume (μl/well). […] Separately, with regard to the system without ligand, only the said D-MEM medium is added 0.4 ml and incubated. […] The cell lytic solution was measured using γ-counter to calculate amount of the dissociated cold ligand once bound with the receptor. The amount of obtained radio activity is all divided by the concentration of the added solution (cpm/μl) and converted to the distribution volume (μl/well). With regards to the ligand non-added system and the ligand added system, the binding rate for 15 minutes is calculated by subtracting the distribution volume in the incubation for 5 minutes from the distribution volume in the incubation for 20 minutes. The binding rate without addition of the ligand is set as 100 and the binding rate of each ligand is converted into the percentage to the control (% of control).

The target is the same in assay [3]. Put plainly: Binding inhibition experiment 2 of 125I-ASOR on mouse primary cultured hepatocytes (Example 9). The settings on record: read-out: Ki value, 0.6 nM 125I-ASOR, 4°C for 60 minutes. On the procedure:
In the binding inhibition experiment according to the method of Biessen, et al. performed in example 8, a concentration of added ^125I-ASOR was 22 nM. Kd value of ASOR is approximately several nM and the concentration of added ASOR is higher that the actual Kd value, consequently, in the experiment in example 8, the binding inhibition by each ligand is difficult to generate and the Kd value is estimated too high. In order to evaluate newly synthesized ligand[(Gal)3(6) and (Gal)2(9)], calculation of more exact Ki value is necessary.
Mouse primary cultured hepatocytes, which were cultured for overnight on the 12 well plate, isolated by collagenase perfusion described in examples of Berry, et al., were washed twice with D-MEM (pH 7.4) (each 2 ml) containing D-PBS, 0.1% BSA and 20 mM Hepes, added said D-MEM medium (1 ml), and preincubated at 37°C for 60 minutes. The cooled D-PBS (pH 5.0) containing 10 mM EDTA was added to the cells, allowed to stand under ice-cooling for 4 minutes, and washed twice with cooled D-PBS (2 ml). […] The cells were washed, on the ice bath, 4 times with cooled D-PBS (1 ml), allowed to leave at -80°C for more than 30 minutes, added 0.1 N aqueous sodium hydroxide (0.5 ml), incubated at 37°C for more than 1 hour, and measured the cell lytic solution by using γ-counter to calculate amount of bound ^125I-ASOR on the surface of cells. […]

The target in assay [4] is T2, asialoglycoprotein receptor (ASGP-R) (Mus musculus, UniProt P24721+P34927).
T2 construct: The liver parenchymal cells (in 4 ml Falcon tube, 0.6 - 1.0 × 10^6/0.5 ml in ice bath); endogenous in cells; host or cells: freshly isolated mouse liver parenchymal cells (C57BL/6) in suspension
T2 sequence (P34927 1-284): T1 sequence (P34927 1-284)
T2 sequence (P24721 1-301): T1 sequence (P24721 1-301)
Put plainly: Binding inhibition experiment of 125I-ASOR to mouse liver cells (Example 8, method of Biessen et al.). Conditions: for Ki: 4°C. As for the experimental part: Among these ligands, we have first examined two types of ligands for asialoglycoprotein receptor on hepatocytes, i.e. the three-branched galactose ligand [(Gal)3] of the following formula: [drawing 5] and the three-branched N-acetylgalactosamine ligand [(GalNAc)3] of the following formula: [drawing 6] and their binding forms to IL-2. At first, the Kd value, which is an index of the binding affinity to ASGP-R, was calculated. Table 1,
Binding inhibition experiments of ASOR to mouse liver cells using each ligand were performed according to a method of Biessen, et al. [Biessen, E.A.L. et al., J. Biol. Chem., 271(45): 28024-28030 (1996)].
The liver parenchymal cells (in 4 ml Falcon tube, 0.6 - 1.0 × 10^6/0.5 ml in ice bath) was added to D-PBS containing 2% BSA. Inhibitor 0.25 ml prepared for various concentration with D-PBS containing 2% BSA was added thereto. ^125I-ASOR 0.25 ml (22 nM) in D-PBS containing 2% BSA was added therein and stirred gently at 4°C for 2 hours.
The mixture was centrifuged at 50G for 1 minute, discarded the supernatant solution, added D-PBS containing 2% BSA and stirred, then again centrifuged at 50G for 1 minute, and discarded the supernatant medium. This procedure was repeated again and the medium was measured by γ-counter.
Thereafter, 0.1 N NaOH containing 10% SDS 1 ml was added thereto, and the protein concentration was measured by Lowry method using the protein assay kit (Biorad Inc.).
As a result, depending on the increase in the added concentration of (GalNAc)3 and (Gal)3, […] was dissociated with almost monophasic manner. Data of dissociation obtained by three repeated experiments were analyzed using non-linear single site model to calculate the binding inhibition constant (Ki).
Large differences were observed between two types of the ligand.

Structures are written as SMILES. “And” between values parts separate entries of the source, which are not always exact repeats. Identical values can stand only once. Like-named read-outs stand apart in the source and are kept apart here.

For `NCCCCCC(=O)N[C@@H](CCC(=O)NCCOCCOCCO[C@@H]1O[C@H](CO)[C@H](O)[C@H](O)[C@H]1O)C(=O)NCCOCCOCCO[C@@H]1O[C@H](CO)[C@H](O)[C@H](O)[C@H]1O` (atropisomer, axis not shown) [(Gal)2(9)], the Bound in assay [1] worked out at 1670 cpm. Besides, in assay [2] (unlabeled ligand, 4°C, 125I-ASOR binding rate for 15 minutes, read-out: koff (converted)), the koff (usually a measure of how fast the partners let go of each other) is 0.000395 s⁻¹. In addition, in assay [2] (unlabeled ligand), the kint stood at 0.0605 min⁻¹.
`NCCCCCC(=O)NC(CCC(=O)NCCOCCO[C@@H]1O[C@H](CO)[C@H](O)[C@H](O)[C@H]1O)C(=O)NC(CCC(=O)NCCOCCO[C@@H]1O[C@H](CO)[C@H](O)[C@H](O)[C@H]1O)C(=O)NCCOCCO[C@@H]1O[C@H](CO)[C@H](O)[C@H](O)[C@H]1O` (stereo partly drawn) [(Gal)3(6)] gave a Bound in assay [1] of 2015 cpm. The off-rate (koff) in assay [2] was 0.00113 s⁻¹. Further, in assay [2] (unlabeled ligand), the kint worked out at 0.0417 min⁻¹. Moreover, the Ki (as a rule, the equilibrium dissociation constant of an inhibitor or competing ligand from its target) in assay [3] is 0.369 µM.
For `NCCCCCC(=O)NC(CCC(=O)NCCOCCOCCO[C@@H]1O[C@H](CO)[C@H](O)[C@H](O)[C@H]1O)C(=O)NC(CCC(=O)NCCOCCOCCO[C@@H]1O[C@H](CO)[C@H](O)[C@H](O)[C@H]1O)C(=O)NCCOCCOCCO[C@@H]1O[C@H](CO)[C@H](O)[C@H](O)[C@H]1O` (stereo partly drawn) [(Gal)3, three-branched galactose ligand], the Bound in assay [1] worked out at 1784 cpm. Further, the off-rate (koff) in assay [2] was 0.000943 s⁻¹. Besides, the kint in assay [2] (unlabeled ligand) stood at 0.054 min⁻¹. Also, the “affinity relative to (GalNAc)3” value in assay [4] (ratio of affinities from Kd values) was “approximately 1/200”. The Ki in assay [4] (read-out: Binding inhibitory constant (Ki) Ave., average of three repeated experiments, 125I-ASOR 22 nM) was 350 µM and 354 µM; in assay [4] (read-out: Binding inhibitory constant (Ki), individual experiments 1-3, binding of 125I-ASOR (22 nM) to mouse hepatocytes), 681 µM and 351 µM and 292 µM; in assay [3] it was 0.157 µM. Also, the Kd (commonly the constant that tells how readily two partners part at equilibrium) in assay [4] (read-out: Kd value, calculated from the Ki of Table 1) was 354 µM.
